Test results published in BindingDB's records for doi:10.1016/0960-894X(96)00045-5 (1996).

target: 5-hydroxytryptamine receptor 1A (Rattus norvegicus) (UniProt P19327); assay: Inhibition of specific [3H]OH-DPAT binding at 5-hydroxytryptamine 1A receptor in rat hippocampal membranes
Sequence (P19327 whole entry, looked up): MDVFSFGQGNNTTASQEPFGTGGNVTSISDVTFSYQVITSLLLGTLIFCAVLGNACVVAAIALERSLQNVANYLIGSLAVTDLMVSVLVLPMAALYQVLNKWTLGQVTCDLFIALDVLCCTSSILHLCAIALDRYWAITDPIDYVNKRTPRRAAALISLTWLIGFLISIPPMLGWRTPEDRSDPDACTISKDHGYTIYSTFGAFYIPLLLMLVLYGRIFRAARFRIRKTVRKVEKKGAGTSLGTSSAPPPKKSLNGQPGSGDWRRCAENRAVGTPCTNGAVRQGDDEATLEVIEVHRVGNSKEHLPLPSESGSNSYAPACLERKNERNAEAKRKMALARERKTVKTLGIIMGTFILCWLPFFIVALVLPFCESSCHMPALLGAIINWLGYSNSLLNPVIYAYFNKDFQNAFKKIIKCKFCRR

| SMILES | Ki [µM] |
| --- | --- |
| CCN(CC)C[C@H]1C[C@@H]1c1ccccc1O [2-((1S,2S)-2-Diethylaminomethyl-cyclopropyl)-phenol] | 0.506 |
| CCCN(CCC)C[C@H]1C[C@@H]1c1ccccc1O [2-((1S,2S)-2-Dipropylaminomethyl-cyclopropyl)-phenol] | 0.752 |
| CCN(CC)C[C@H]1C[C@@H]1c1ccccc1OC [Diethyl-[(1S,2S)-2-(2-methoxy-phenyl)-cyclopropylmethyl]-amine] | 0.431 |
| CCCN(CCC)[C@@H]1C[C@@H]1c1ccccc1OC [[(1R,2R)-2-(2-Methoxy-phenyl)-cyclopropyl]-dipropyl-amine] | > 10 |
| CCCN(CCC)[C@@H]1C[C@@H]1c1cccc(OC)c1 [[(1R,2R)-2-(3-Methoxy-phenyl)-cyclopropyl]-dipropyl-amine] | 0.736 |
| CCCN(CCC)C[C@@H]1C[C@@H]1c1ccccc1OC [[(1R,2S)-2-(2-Methoxy-phenyl)-cyclopropylmethyl]-dipropyl-amine] | 0.998 |
| CCCN(CCC)[C@H]1C[C@@H]1c1ccccc1OC [[(1S,2R)-2-(2-Methoxy-phenyl)-cyclopropyl]-dipropyl-amine] | 0.017 |

Other lines, results leading:

| Ki [µM] | SMILES |
| --- | --- |
| 0.379 | CCCN(CCC)C[C@@H]1C[C@@H]1c1ccccc1O [2-((1S,2R)-2-Dipropylaminomethyl-cyclopropyl)-phenol] |
| 0.058 | CCCN(CCC)C[C@@H]1C[C@@H]1c1cccc(O)c1 [3-((1S,2R)-2-Dipropylaminomethyl-cyclopropyl)-phenol] |
| 0.186 | CCCN(CCC)C[C@H]1C[C@@H]1c1cccc(O)c1 [3-((1S,2S)-2-Dipropylaminomethyl-cyclopropyl)-phenol] |
| 0.388 | CCCN(CCC)C[C@@H]1C[C@@H]1c1cccc(OC)c1 [[(1R,2S)-2-(3-Methoxy-phenyl)-cyclopropylmethyl]-dipropyl-amine] |
| 0.239 | CCCN(CCC)C[C@H]1C[C@@H]1c1ccccc1OC [[(1S,2S)-2-(2-Methoxy-phenyl)-cyclopropylmethyl]-dipropyl-amine] |
| 0.31 | CCCN(CCC)C[C@H]1C[C@@H]1c1cccc(OC)c1 [[(1S,2S)-2-(3-Methoxy-phenyl)-cyclopropylmethyl]-dipropyl-amine] |
